The record followed here is US20230165970A1, “COMPOSITIONS AND METHODS FOR THE TREATMENT OF BACTERIAL INFECTIONS” (priority 2017, published 2023).

The test system of assay [1] is LPS from E. coli O111:B4. The assay can be described thus: LPS binding/neutralization by Limulus Amebocyte Lysate (LAL) assay. It is filed as biochemical. The following applies: LPS 1-10,000 ng/mL, test article 0.25-10 μM. The method, then: The LAL assay (Charles River) was used to determine the binding affinity of test articles to LPS.
For the assay, 25 μL purified LPS from E. coli O111:[…] (Sigma) at doses ranging from 1-10,000 ng/mL were incubated with 25 μL of test article at concentrations ranging from […]. After 5 min incubation at 37° C., 50 μL of LAL reagent, which reacts with lipid A portion from LPS, was added to corresponding wells. After 15 min, absorbance at 405 nm was read on EnSpire plate reader (Perkin Elmer). The % LPS neutralization is calculated relative to a PBS control (background) and LPS control at each concentration (positive control).
LPS neutralization=(1−(absorbance test article−PBS with LAL reagent)/(absorbance no test article−PBS with LAL reagent))×100
To obtain a single value of LPS neutralization for each test article, the area under the curve (AUC) for dose-response of test articles from […] for each LPS concentration was calculated using Prism 7 software. The % LPS neutralization is the sum of the AUCs for each LPS concentration determined relative to the maximal AUC achievable×100.
For the assay, 25 μL purified LPS from E. coli O111:B4 (Sigma) at doses ranging from 1-10,000 ng/mL were incubated with 25 μL of test article at concentrations ranging from 0.25-10 μM. After 5 min incubation at 37° C., 50 μL of LAL reagent, which reacts with lipid A portion from LPS, was added to corresponding wells. After 15 min, absorbance at 405 nm was read on EnSpire plate reader (Perkin Elmer). The % LPS neutralization is calculated relative to a PBS control (background) and LPS control at each concentration (positive control).

For assay [2], the system named is Ab 8990 (COL^R). The assay is classed as cell-based, Acinetobacter baumannii. The following applies: Ab 8990 (COL^R); media CA-MHB. The procedure:
(§1) Briefly, stock solutions of all antibacterial agents were prepared fresh in appropriate solvents (i.e. PBS, pH 7.4, DMSO, DI, etc.). Stock concentrations for drug conjugates were made at 12.5× the highest final assay concentration. All were serially diluted 2-fold, 8 or 12 times in a 96-well PCR plate (VWR cat. no. 83007-374). Bacterial cell suspensions generated from Mueller-Hinton agar (MHA) plate cultures were prepared in 0.85% saline and adjusted to ˜0.1 OD600 nm. […] For the conjugates, 92 μL of each cell suspension in RPMI B were added in the same 96-well plate assay format. […] Compounds were tested against a 14-strain panel comprised of E. coli (Ec), A. baumannii (Ab), P. aeruginosa (Pa), and K. pneumoniae (Kp) that were obtained from ATCC (Ec 25922, Ec 2489, Ab 19606, Pa 27853, Pa PAO1, Kp 43816, Kp 10031), Centers for Disease Control and Prevention (Ec AR0349), BEI Resources (Ab AB5075), Micromyx LLC (Ab 8990, Kp 6951), and Belgian Coordinated Collections of Microorganisms (Pa LES431) or generated in-house (Ec 25922 64X-1). […] E. coli strain ATCC 25922 and P. aeruginosa strain LES431 were run in the presence and absence of 50% heat-inactivated fetal bovine serum (FBS; Sigma, cat. no. F4135-100 mL). Plates were mixed by shaking then incubated at 35° C. overnight (16-20 h).

In assay [3] the test system is Ab AB5075. The assay is classed as cell-based, Acinetobacter baumannii. The procedure:
as §1

For assay [4], the system named is Kp 6951 (COL^R). It is filed as cell-based, Klebsiella pneumoniae. The note with it: Kp 6951 (COL^R); media CA-MHB. The procedure: as §1
Assay [5] has as its system Kp 10031. It is filed as cell-based, Klebsiella pneumoniae. The method, then:
as §1

Assay [6] relates to Kp 43816. The assay is classed as cell-based, Klebsiella pneumoniae. The method, then: as §1
The test system of assay [7] is Pa 27853. It is filed as cell-based, Pseudomonas aeruginosa. The procedure:
as §1

Assay [8] relates to Pa LES431. The assay is classed as cell-based, Pseudomonas aeruginosa. The method, then:
as §1

For assay [9], the system named is Pa PAO1. It is filed as cell-based, Pseudomonas aeruginosa. The procedure: as §1
The test system of assay [10] is Ab 19606 (COLhet^R). It is filed as cell-based, Acinetobacter baumannii. The following applies: media CA-MHB. The method, then:
(§2) Briefly, stock solutions of all antibacterial agents were prepared fresh in appropriate solvents (i.e. PBS, pH 7.4, DMSO, DI, etc.). Stock concentrations for drug conjugates were made at 12.5× the highest final assay concentration. All were serially diluted 2-fold, 8 or 12 times in a 96-well PCR plate (VWR cat. no. 83007-374). Bacterial cell suspensions generated from Mueller-Hinton agar (MHA) plate cultures were prepared in 0.85% saline and adjusted to ˜0.1 OD600 nm. Next, cell suspensions were diluted 1:200 in RPMI containing 5% Luria Broth (LB) to improve bacterial growth (BD Difco, cat. no. 244620) to a concentration of ˜5×10^5 CFU (colony-forming units)/mL. Due to poor solubility in Mueller-Hinton broth media, drug conjugates were evaluated in RPMI 1640 medium (+) L-glutamine, (+) sodium bicarbonate, pH 7.4 (“RPMI B”; Gibco, cat. no. 11875-085) as has been described as a more physiologically-relevant media for susceptibility testing of antibacterial compounds (1). For the conjugates, 92 μL of each cell suspension in RPMI B were added in the same 96-well plate assay format. […] Compounds were tested against a 14-strain panel comprised of E. coli (Ec), A. baumannii (Ab), P. aeruginosa (Pa), and K. pneumoniae (Kp) that were obtained from ATCC (Ec 25922, Ec 2489, Ab 19606, Pa 27853, Pa PAO1, Kp 43816, Kp 10031), Centers for Disease Control and Prevention (Ec AR0349), BEI Resources (Ab AB5075), Micromyx LLC (Ab 8990, Kp 6951), and Belgian Coordinated Collections of Microorganisms (Pa LES431) or generated in-house (Ec 25922 64X-1). […] E. coli strain ATCC 25922 and P. aeruginosa strain LES431 were run in the presence and absence of 50% heat-inactivated fetal bovine serum (FBS; Sigma, cat. no. F4135-100 mL). Plates were mixed by shaking then incubated at 35° C. overnight (16-20 h).

Assay [11] concerns Ab AB58705 (COL^R) IpxD, mut. (no LPS). The assay is classed as cell-based, Acinetobacter baumannii. The following applies: media CA-MHB.
In assay [12] the test system is Ec 2469. It is filed as cell-based, Escherichia coli. The method, then: as §1
For assay [13], the system named is Ec 25922. It is filed as cell-based, Escherichia coli. The procedure:
as §1

Assay [14] has as its system Ec 25922 64X-1 (COL^R). The assay is classed as cell-based, Escherichia coli. The note with it: media CA-MHB. The method, then:
as §2

The test system of assay [15] is Ec AR0349 (mcr-1, COL^R). It is filed as cell-based, Escherichia coli. The following applies: media CA-MHB. The procedure:
as §2

The subject of assay [16] is Sa RN. The assay is classed as cell-based.

Molecules are shown by their SMILES. Converted amounts (≈) assume the structure as drawn. Read-outs that look alike come from different tables or passages of the source. *1 amine or outer side, *2 acyl side, *3 side chain or, on linkers, in order; H or OH if unused. Where a SMILES comes first, the peptide text is derived from it. Bridges are numbered along the chain shown (N, C = ends). Roman numbers before positions name the chains, in order. [ ]: non-standard residue; d: D form. The star is where a group is joined. ξ: configuration not given here. X8 = C#CCOCCOCCOCCOCCN1CCN(C2C[C@@H](C(=O)[*:1])[C@H](C(=O)[*:2])C2)CC1; X2 = O=C([C@@H](N[*:1])[C@H](O)CCC(F)(F)F)[*:2]; Propargyl(OCH2CH2)4CO = C#CCOCCOCCOCCOCCC(=O)*; Aoc(2) = CCCCCC[C@H](N)C(=O)O; hLeu = CC(C)CC[C@H](N)C(=O)O; X7 = NCCN(NC(=O)[*:2])[*:1]; Nle = CCCC[C@H](N)C(=O)O; ξF = NC(Cc1ccccc1)C(=O)O; Dab = NCC[C@H](N)C(=O)O; ξT = CC(O)C(N)C(=O)O; azaGly = NNC(=O)O

With `C#CCOCCOCCOCCOCCC(=O)N[C@@H](CCC(C)C)C(=O)N[C@@H](CCN)C(=O)N[C@H](C(=O)N(CCN)NC(=O)N[C@H]1CCNC(=O)[C@H]([C@@H](C)O)NC(=O)[C@H](CCN)NC(=O)[C@H](CCN)NC(=O)[C@H](CC(C)C)NC(=O)[C@@H](Cc2ccccc2)NC(=O)[C@H](CCN)NC1=O)[C@@H](C)O` [Int-126] ({Propargyl(OCH2CH2)4CO}-[hLeu][Dab]T[X7][Dab][Dab][dF]L[Dab][Dab]T; lactam 5-C), the “% LPS neutralization” value in [1] (sum of AUCs relative to maximal AUC (Table 15)) is recorded as 19.7%. Besides, the MIC (commonly the lowest concentration that inhibits growth of the organism) in assay [2] was more than 128 µg/mL; in [3] it was 2 µg/mL (≈ 1.39 µM); in assay [4] it was more than 128 µg/mL; in [5], 1 µg/mL (≈ 0.697 µM); in [6], 1 µg/mL (≈ 0.697 µM); in assay [7], 2 µg/mL (≈ 1.39 µM). For the same compound, the MIC turned out to be 4 µg/mL (≈ 2.79 µM) in assay [8]; 2 µg/mL (≈ 1.39 µM) in assay [9] (PAO1); 4 µg/mL (≈ 2.79 µM) in [10]; 64 µg/mL (≈ 44.6 µM) in assay [11]; 0.5 µg/mL (≈ 0.349 µM) in [12]; 1 µg/mL (≈ 0.697 µM) in assay [13]. The MIC in [14] is 64 µg/mL (≈ 44.6 µM); in [15], 8 µg/mL (≈ 5.58 µM); in assay [16], more than 128 µg/mL.

In the case of `C#CCOCCOCCOCCOCCN1CCN(C2C[C@@H](C(=O)N[C@@H](CCCC)C(=O)N[C@@H](CCN)C(=O)N[C@H](C(=O)NNC(=O)N[C@H]3CCNC(=O)[C@H]([C@@H](C)O)NC(=O)[C@H](CCN)NC(=O)[C@H](CCN)NC(=O)[C@H](CC(C)C)NC(=O)C(Cc4ccccc4)NC(=O)[C@H](CCN)NC3=O)[C@@H](C)O)[C@H](C(=O)N[C@@H](CCCC)C(=O)N[C@@H](CCN)C(=O)N[C@H](C(=O)NNC(=O)N[C@H]3CCNC(=O)C(C(C)O)NC(=O)[C@H](CCN)NC(=O)[C@H](CCN)NC(=O)[C@H](CC(C)C)NC(=O)[C@@H](Cc4ccccc4)NC(=O)[C@H](CCN)NC3=O)[C@@H](C)O)C2)CC1` (some centres unmarked) [Int-105] (I: [Nle][Dab]T[azaGly][Dab][Dab][dF]L[Dab][Dab][ξT] / II: [Nle][Dab]T[azaGly][Dab][Dab][ξF]L[Dab][Dab]T; lactam I:5-I:C, II:5-II:C; linker I:N-II:N via X8), the “% LPS neutralization of TM” value in assay [1] (sum of AUCs relative to maximal AUC (Table 14)) is 33.2%. Also, the MIC was more than 128 µg/mL in assay [2]; 2 µg/mL (≈ 0.744 µM) in [3] (Ab AB5075, media CA-MHB); 32 µg/mL (≈ 11.9 µM) in [4]; 2 µg/mL (≈ 0.744 µM) in assay [5] (Kp 10031, media CA-MHB); 2 µg/mL (≈ 0.744 µM) in assay [6] (Kp 43816, media CA-MHB); 4 µg/mL (≈ 1.49 µM) in [7] (Pa 27853, media CA-MHB). The MIC in assay [8] (Pa LES431 + FBS (50%, heat-inactivated), media CA-MHB) was determined as 16 µg/mL; in assay [8] (Pa LES431, media CA-MHB), 2 µg/mL (≈ 0.744 µM); in assay [9] (Pa PAO1, media CA-MHB) it was 4 µg/mL (≈ 1.49 µM); in [10] it was 2 µg/mL (≈ 0.744 µM); in assay [12] (Ec 2469, media CA-MHB) it was 2 µg/mL (≈ 0.744 µM); in assay [13] (Ec 25922 + FBS (50%, heat-inactivated), media CA-MHB) it was 0.5 µg/mL. In addition, the minimal inhibitory concentration (MIC) in [13] (Ec 25922, media CA-MHB) is 2 µg/mL (≈ 0.744 µM); in [14], 4 µg/mL (≈ 1.49 µM); in assay [15], 4 µg/mL (≈ 1.49 µM).

On to `C#CCOCCOCCOCCOCCC(=O)N[C@@H](CCCCCC)C(=O)N[C@@H](CCN)C(=O)N[C@H](C(=O)NNC(=O)N[C@H]1CCNC(=O)[C@H]([C@@H](C)O)NC(=O)[C@H](CCN)NC(=O)[C@H](CCN)NC(=O)[C@H](CC(C)C)NC(=O)[C@@H](Cc2ccccc2)NC(=O)[C@H](CCN)NC1=O)[C@H](O)CCC(F)(F)F` [Int-119] ({Propargyl(OCH2CH2)4CO}-[Aoc(2)][Dab][X2][azaGly][Dab][Dab][dF]L[Dab][Dab]T; lactam 5-C), for which the MIC stood at 1 µg/mL (≈ 0.673 µM) in assay [3]; 2 µg/mL (≈ 1.35 µM) in assay [5]; 2 µg/mL (≈ 1.35 µM) in [6]; 4 µg/mL (≈ 2.69 µM) in assay [7]; 4 µg/mL (≈ 2.69 µM) in assay [8]; 16 µg/mL (≈ 10.8 µM) in assay [9] (PAO1). Further, the MIC in assay [12] was 2 µg/mL (≈ 1.35 µM); in assay [13], 2 µg/mL (≈ 1.35 µM); in assay [16], more than 128 µg/mL.
